Structures can show the parent of a compound that is named as a salt. Where two headings read alike, the source gives them in different places.
Key:
Test in all cases: qHTS cell viability (CellTiter-Glo, 72 h; primary and follow-up small molecule screen)
Type in all cases: cell-based, human
MCC13 cells (VN-MCC) = tested on: MCC13 cells (VN-MCC)
MCC26 cells (VN-MCC) = tested on: MCC26 cells (VN-MCC)
UISO cells (VN-MCC) = tested on: UISO cells (VN-MCC)
WAGA cells (VP-MCC) = tested on: WAGA cells (VP-MCC)
MKL-1 cells (VP-MCC) = tested on: MKL-1 cells (VP-MCC)
MKL-2 cells (VP-MCC) = tested on: MKL-2 cells (VP-MCC)

## O=C1c2c(O)ccc(O)c2C(=O)c2c(NCCNCCO)ccc(NCCNCCO)c21 [Mitoxantrone dihydrochloride]
MCC13 cells (VN-MCC)
  Area under the dose-response curve (AUC) MCC13 Replicate 1: 292.1
  Area under the dose-response curve (AUC) MCC13 Replicate 2: 295.3
  Area under the dose-response curve (AUC) MCC13 Replicate 3: 315.4
MCC26 cells (VN-MCC)
  Area under the dose-response curve (AUC) MCC26 Replicate 1: 322.6
  Area under the dose-response curve (AUC) MCC26 Replicate 2: 335.6
  Area under the dose-response curve (AUC) MCC26 Replicate 3: 279.8
UISO cells (VN-MCC)
  Area under the dose-response curve (AUC) UISO Replicate 1: 188.5
  Area under the dose-response curve (AUC) UISO Replicate 2: 205.7
  Area under the dose-response curve (AUC) UISO Replicate 3: 190.2
WAGA cells (VP-MCC)
  Area under the dose-response curve (AUC) WAGA Replicate 1: 153.5
  Area under the dose-response curve (AUC) WAGA Replicate 2: 170.4
  Area under the dose-response curve (AUC) WAGA Replicate 3: 183.6
MKL-1 cells (VP-MCC)
  Area under the dose-response curve (AUC) MKL-1 Replicate 1: 180.6
  Area under the dose-response curve (AUC) MKL-1 Replicate 2: 178.5
  Area under the dose-response curve (AUC) MKL-1 Replicate 3: 172.4
MKL-2 cells (VP-MCC)
  Area under the dose-response curve (AUC) MKL-2 Replicate 1: 203.7
  Area under the dose-response curve (AUC) MKL-2 Replicate 2: 186.2
  Area under the dose-response curve (AUC) MKL-2 Replicate 3: 247.3

## COc1ccc(OC)c(-c2nnc3ccc(-c4ccc(OC)c(O[C@@H]5CCOC5)c4)nn23)c1 [NCGC00168459-01]
MCC13 cells (VN-MCC); follow-up screen, MCC13, replicate 1
  Area under the dose-response curve (AUC) MCC13 Replicate 1: 471.2
MCC13 cells (VN-MCC); follow-up screen, MCC13, replicate 2
  Area under the dose-response curve (AUC) MCC13 Replicate 2: 476.6
MCC13 cells (VN-MCC); follow-up screen, MCC13, replicate 3
  Area under the dose-response curve (AUC) MCC13 Replicate 3: 471.3
MCC26 cells (VN-MCC); follow-up screen, MCC26, replicate 1
  Area under the dose-response curve (AUC) MCC26 Replicate 1: 450.8
MCC26 cells (VN-MCC); follow-up screen, MCC26, replicate 2
  Area under the dose-response curve (AUC) MCC26 Replicate 2: 439.4
MCC26 cells (VN-MCC); follow-up screen, MCC26, replicate 3
  Area under the dose-response curve (AUC) MCC26 Replicate 3: 478.6
UISO cells (VN-MCC); follow-up screen, UISO, replicate 1
  Area under the dose-response curve (AUC) UISO Replicate 1: 435.8
UISO cells (VN-MCC); follow-up screen, UISO, replicate 2
  Area under the dose-response curve (AUC) UISO Replicate 2: 424.6
UISO cells (VN-MCC); follow-up screen, UISO, replicate 3
  Area under the dose-response curve (AUC) UISO Replicate 3: 430.2
WAGA cells (VP-MCC); follow-up screen, WAGA, replicate 1
  Area under the dose-response curve (AUC) WAGA Replicate 1: 480.8
WAGA cells (VP-MCC); follow-up screen, WAGA, replicate 2
  Area under the dose-response curve (AUC) WAGA Replicate 2: 429.3
WAGA cells (VP-MCC); follow-up screen, WAGA, replicate 3
  Area under the dose-response curve (AUC) WAGA Replicate 3: 424.9
MKL-1 cells (VP-MCC); follow-up screen, MKL-1, replicate 1
  Area under the dose-response curve (AUC) MKL-1 Replicate 1: 460.8
MKL-1 cells (VP-MCC); follow-up screen, MKL-1, replicate 2
  Area under the dose-response curve (AUC) MKL-1 Replicate 2: 464.3
MKL-1 cells (VP-MCC); follow-up screen, MKL-1, replicate 3
  Area under the dose-response curve (AUC) MKL-1 Replicate 3: 463.4
MKL-2 cells (VP-MCC); follow-up screen, MKL-2, replicate 1
  Area under the dose-response curve (AUC) MKL-2 Replicate 1: 463.7
MKL-2 cells (VP-MCC); follow-up screen, MKL-2, replicate 2
  Area under the dose-response curve (AUC) MKL-2 Replicate 2: 433.6
MKL-2 cells (VP-MCC); follow-up screen, MKL-2, replicate 3
  Area under the dose-response curve (AUC) MKL-2 Replicate 3: 459.9

## CO[C@@H]1C[C@@H](C[C@H]2CC[C@H](C)[C@H]([C@@H](C)C(=O)[O-])O2)O[C@]2(O[C@](C)([C@H]3CC[C@@](C)([C@@H]4O[C@@H]([C@H]5O[C@@](O)(CO)[C@H](C)C[C@@H]5C)C[C@@H]4C)O3)C[C@H]2C)[C@@H]1C.[Na+] [Nigericin sodium salt]
MCC13 cells (VN-MCC)
  Area under the dose-response curve (AUC) MCC13 Replicate 1: 420.5
  Area under the dose-response curve (AUC) MCC13 Replicate 2: 422.2
  Area under the dose-response curve (AUC) MCC13 Replicate 3: 367.3
MCC26 cells (VN-MCC)
  Area under the dose-response curve (AUC) MCC26 Replicate 1: 423.1
  Area under the dose-response curve (AUC) MCC26 Replicate 2: 378.2
  Area under the dose-response curve (AUC) MCC26 Replicate 3: 418.9
UISO cells (VN-MCC)
  Area under the dose-response curve (AUC) UISO Replicate 1: 277.0
  Area under the dose-response curve (AUC) UISO Replicate 2: 262.8
  Area under the dose-response curve (AUC) UISO Replicate 3: 250.0
WAGA cells (VP-MCC)
  Area under the dose-response curve (AUC) WAGA Replicate 1: 344.8
  Area under the dose-response curve (AUC) WAGA Replicate 2: 317.4
  Area under the dose-response curve (AUC) WAGA Replicate 3: 302.7
MKL-1 cells (VP-MCC)
  Area under the dose-response curve (AUC) MKL-1 Replicate 1: 303.1
  Area under the dose-response curve (AUC) MKL-1 Replicate 2: 277.9
  Area under the dose-response curve (AUC) MKL-1 Replicate 3: 285.1
MKL-2 cells (VP-MCC)
  Area under the dose-response curve (AUC) MKL-2 Replicate 1: 228.1
  Area under the dose-response curve (AUC) MKL-2 Replicate 2: 251.1
  Area under the dose-response curve (AUC) MKL-2 Replicate 3: 280.4

## CCCCCCCCC(=O)NCc1ccc(O)c(OC)c1 [Nonivamide]
MCC13 cells (VN-MCC)
  Area under the dose-response curve (AUC) MCC13 Replicate 1: 513.1
  Area under the dose-response curve (AUC) MCC13 Replicate 2: 478.1
  Area under the dose-response curve (AUC) MCC13 Replicate 3: 523.7
MCC26 cells (VN-MCC)
  Area under the dose-response curve (AUC) MCC26 Replicate 1: 453.4
  Area under the dose-response curve (AUC) MCC26 Replicate 2: 445.4
  Area under the dose-response curve (AUC) MCC26 Replicate 3: 466.4
UISO cells (VN-MCC)
  Area under the dose-response curve (AUC) UISO Replicate 1: 479.2
  Area under the dose-response curve (AUC) UISO Replicate 2: 501.4
  Area under the dose-response curve (AUC) UISO Replicate 3: 453.6
WAGA cells (VP-MCC)
  Area under the dose-response curve (AUC) WAGA Replicate 1: 544.9
  Area under the dose-response curve (AUC) WAGA Replicate 2: 499.1
  Area under the dose-response curve (AUC) WAGA Replicate 3: 488.2
MKL-1 cells (VP-MCC)
  Area under the dose-response curve (AUC) MKL-1 Replicate 1: 491.5
  Area under the dose-response curve (AUC) MKL-1 Replicate 2: 481.8
  Area under the dose-response curve (AUC) MKL-1 Replicate 3: 491.3
MKL-2 cells (VP-MCC)
  Area under the dose-response curve (AUC) MKL-2 Replicate 1: 520.2
  Area under the dose-response curve (AUC) MKL-2 Replicate 2: 501.6
  Area under the dose-response curve (AUC) MKL-2 Replicate 3: 494.8
